These results are taken from ChEMBL document CHEMBL3244076, “N,N'-(Phenylene)dioxamic acids and their esters as antiallergy agents” (1978).

What is called inhibition in vivo is how much of the control response was suppressed. A word on the ED50: it is the midpoint of the dose-response relation.

Common to all, as to assay type: functional
Assay [1] has as its system Rattus norvegicus. Kind of assay: Antiallergic activity in anti-egg albumin homocytotropic antibody-sensitized Sprague-Dawley rat assessed as inhibition of passive cutaneous anaphylaxis reaction at 50 mg/kg, po administered 120 mins prior to antigen egg albumin challenge.
Assay [2] has as its system Rattus norvegicus. Kind of assay: Antiallergic activity in anti-egg albumin homocytotropic antibody-sensitized Sprague-Dawley rat assessed as time of peak action for inhibition of passive cutaneous anaphylaxis reaction at 50 mg/kg, po administered prior to antigen egg albumin challenge.
The test system of assay [3] is Rattus norvegicus. Kind of assay: Antiallergic activity in anti-egg albumin homocytotropic antibody-sensitized Sprague-Dawley rat assessed as inhibition of passive cutaneous anaphylaxis reaction at 50 mg/kg, po administered 20 mins prior to antigen egg albumin challenge.
The subject of assay [4] is Rattus norvegicus. Kind of assay: Antiallergic activity in anti-egg albumin homocytotropic antibody-sensitized Sprague-Dawley rat assessed as inhibition of passive cutaneous anaphylaxis reaction at 50 mg/kg, po administered 60 mins prior to antigen egg albumin challenge.
Assay [5] concerns Rattus norvegicus. The experiment in a line: Antiallergic activity in anti-egg albumin homocytotropic antibody-sensitized Sprague-Dawley rat assessed as inhibition of passive cutaneous anaphylaxis reaction at 50 mg/kg, po administered 5 mins prior to antigen egg albumin challenge.
In assay [6] the test system is Rattus norvegicus. Kind of assay: Antiallergic activity in po dosed anti-egg albumin homocytotropic antibody-sensitized Sprague-Dawley rat assessed as lowest concentration required for >20% inhibition of passive cutaneous anaphylaxis reaction administered prior to antigen egg albumin challenge.
Assay [7] relates to Rattus norvegicus. Kind of assay: Antiallergic activity in anti-egg albumin homocytotropic antibody-sensitized Sprague-Dawley rat assessed as inhibition of passive cutaneous anaphylaxis reaction at 10 mg/kg, po administered 60 mins prior to antigen egg albumin challenge.
Assay [8] deals with Rattus norvegicus. Kind of assay: Antiallergic activity in anti-egg albumin homocytotropic antibody-sensitized Sprague-Dawley rat assessed as inhibition of passive cutaneous anaphylaxis reaction at 10 mg/kg, po administered 5 mins prior to antigen egg albumin challenge.
Assay [9] concerns Rattus norvegicus. Kind of assay: Antiallergic activity in anti-egg albumin homocytotropic antibody-sensitized Sprague-Dawley rat assessed as inhibition of passive cutaneous anaphylaxis reaction at 10 mg/kg, po administered 20 mins prior to antigen egg albumin challenge.
In assay [10] the test system is Rattus norvegicus. The experiment in a line: Antiallergic activity in anti-egg albumin homocytotropic antibody-sensitized Sprague-Dawley rat assessed as inhibition of passive cutaneous anaphylaxis reaction at 0.01 mg/kg, iv administered at the time of antigen egg albumin challenge.
Assay [11] relates to Rattus norvegicus. Kind of assay: Antiallergic activity in anti-egg albumin homocytotropic antibody-sensitized Sprague-Dawley rat assessed as inhibition of passive cutaneous anaphylaxis reaction at 1 mg/kg, iv administered at the time of antigen egg albumin challenge.
Assay [12] relates to Rattus norvegicus. The experiment in a line: Antiallergic activity in anti-egg albumin homocytotropic antibody-sensitized Sprague-Dawley rat assessed as inhibition of passive cutaneous anaphylaxis reaction at 0.001 mg/kg, iv administered at the time of antigen egg albumin challenge.
Assay [13] concerns Rattus norvegicus. The experiment in a line: Antiallergic activity in anti-egg albumin homocytotropic antibody-sensitized Sprague-Dawley rat assessed as inhibition of passive cutaneous anaphylaxis reaction at 0.1 mg/kg, iv administered at the time of antigen egg albumin challenge.
Assay [14] deals with Rattus norvegicus. Kind of assay: Antiallergic activity in anti-egg albumin homocytotropic antibody-sensitized Sprague-Dawley rat assessed as inhibition of passive cutaneous anaphylaxis reaction at 50 mg/kg, po administered prior to antigen egg albumin challenge.
The subject of assay [15] is Rattus norvegicus. Kind of assay: Antiallergic activity in iv dosed anti-egg albumin homocytotropic antibody-sensitized Sprague-Dawley rat assessed as inhibition of passive cutaneous anaphylaxis reaction administered at the time of antigen egg albumin challenge.
For assay [16], the system named is Rattus norvegicus. Kind of assay: Ratio of disodium cromoglycate ED50 to compound ED50 for antiallergic activity in iv dosed anti-egg albumin homocytotropic antibody-sensitized Sprague-Dawley rat by passive cutaneous anaphylaxis reaction analysis.

In the case of `CCOC(=O)C(=O)Nc1cccc(NC(=O)C(=O)OCC)c1`, the inhibition in vivo at 50 mg/kg with Rattus norvegicus [1] worked out at 29%; in the assay on Rattus norvegicus [3] it was 94%; with Rattus norvegicus [4] it was 14%; in the assay with Rattus norvegicus [5], 3%. In the assay on Rattus norvegicus [2], the Time is listed as 20 min. In the assay on Rattus norvegicus [6], the LED was found to be 1 mg/kg.

With `CCOC(=O)C(=O)Nc1ccc(C#N)c(NC(=O)C(=O)OCC)c1`, the inhibition in vivo at 10 mg/kg in the assay with Rattus norvegicus [7] was determined as 19%; in the assay with Rattus norvegicus [8], 7%; in the assay on Rattus norvegicus [9], 19%.

Consider `CCOC(=O)C(=O)Nc1cc(C#N)cc(NC(=O)C(=O)OCC)c1`, for which the inhibition in vivo at 10 mg/kg with Rattus norvegicus [7] worked out at 0%; in the assay on Rattus norvegicus [8] it was 95%; in the assay on Rattus norvegicus [9], 25%.

For the molecule `Cc1cc(NC(=O)C(=O)O)c(Cl)c(NC(=O)C(=O)O)c1`, the inhibition in vivo at 0.01 mg/kg in the assay on Rattus norvegicus [10] amounted to 20%. Besides, the inhibition in vivo at 1 mg/kg in the assay with Rattus norvegicus [11] was 100%. The inhibition in vivo at 0.001 mg/kg in the assay with Rattus norvegicus [12] came out at 2%. Moreover, the inhibition in vivo at 0.1 mg/kg in the assay with Rattus norvegicus [13] came to 91%.

Regarding `O=C(O)C(=O)Nc1cc(C(F)(F)F)cc(NC(=O)C(=O)O)c1Cl`, the inhibition in vivo at 0.01 mg/kg in the assay on Rattus norvegicus [10] was 90%. The inhibition in vivo at 0.001 mg/kg with Rattus norvegicus [12] turned out to be 0%. Moreover, in the assay on Rattus norvegicus [13], the inhibition in vivo at 0.1 mg/kg turned out to be 100%.

For the molecule `N#Cc1cc(NC(=O)C(=O)O)cc(NC(=O)C(=O)O)c1Cl`, the inhibition in vivo at 0.01 mg/kg in the assay with Rattus norvegicus [10] came to 20%. Besides, the inhibition in vivo at 1 mg/kg in the assay with Rattus norvegicus [11] is 100%. Further, in the assay on Rattus norvegicus [12], the inhibition in vivo at 0.001 mg/kg stood at 0%. In addition, the inhibition in vivo at 0.1 mg/kg in the assay with Rattus norvegicus [13] amounted to 100%.

Turning to `CCCCOC(=O)C(=O)Nc1cc(C#N)cc(NC(=O)C(=O)OCCCC)c1Cl`, the Time with Rattus norvegicus [2] amounted to 5 min. Moreover, the inhibition in vivo at 50 mg/kg in the assay with Rattus norvegicus [14] was 100%.

`CCCCCCOC(=O)C(=O)Nc1cc(C#N)cc(NC(=O)C(=O)OCCCCCC)c1Cl`: the Time in the assay with Rattus norvegicus [2] came to 5 min. Further, the inhibition in vivo at 50 mg/kg in the assay on Rattus norvegicus [14] was 51%.

With `N#Cc1cc(NC(=O)C(=O)OC23CC4CC(CC(C4)C2)C3)c(Cl)c(NC(=O)C(=O)OC23CC4CC(CC(C4)C2)C3)c1`, in the assay with Rattus norvegicus [2], the Time came out at 60 min. Moreover, the inhibition in vivo at 50 mg/kg in the assay on Rattus norvegicus [14] was 50%.

`O=C([O-])c1cc(=O)c2c(OCC(O)COc3cccc4oc(C(=O)[O-])cc(=O)c34)cccc2o1.[Na+].[Na+]` [CROMOLYN SODIUM]: in the assay on Rattus norvegicus [15], the ED50 was 2.5 mg/kg.

For the molecule `CCOC(=O)C(=O)Nc1cc(C#N)cc(NC(=O)C(=O)OCC)c1Cl` [LODOXAMIDE ETHYL], in the assay with Rattus norvegicus [2], the Time turned out to be 5 min. The inhibition in vivo at 50 mg/kg in the assay with Rattus norvegicus [3] turned out to be 31%; in the assay on Rattus norvegicus [4], 0%; in the assay on Rattus norvegicus [5], 100%. Moreover, the LED in the assay with Rattus norvegicus [6] was 0.1 mg/kg.

`N#Cc1cc(NC(=O)C(=O)O)c(Cl)c(NC(=O)C(=O)O)c1` [LODOXAMIDE]: in the assay on Rattus norvegicus [10], the inhibition in vivo at 0.01 mg/kg worked out at 94%. Also, in the assay on Rattus norvegicus [12], the inhibition in vivo at 0.001 mg/kg worked out at 50%. Further, in the assay on Rattus norvegicus [16], the “Ratio ED50” value is listed as 2500.
